Measurements as given in patent publication US20030158250A1, “Agents correcting gene expression regulatory error” (priority 2000, published 2003).

Experiments:
HO1 protein = HO1 protein induction in RAW 264.7 cells (Western blot); format: cell-based; set-up: key to Intensity of Bands of HO1 Protein: those showing no bands are indicated by “−,”; the intensities of the bands are indicated by +−, +, ++ in the ascending order of the intensities of the bands; the intensities of the bands are indicated by +−, +, ++ in the ascending order of the intensities of the bands; the intensities of the bands are indicated by +−, +, ++ in the ascending order of the intensities of the bands; conditions: for induction action for HO production (band ascribed to HO1 protein): 15 hours, DGE at 10 to 40 μM
Procedure: RAW 264.7 cells (ATCC TIB 71) were suspended in a Dulbecco's modified Eagle's medium (manufactured by Bio Whittaker; 12-604F) containing 10% fetal bovine serum (manufactured by Gibco), so as to have a concentration of 3×10^5 cells/ml. The cell suspension was added to each well of a 6-well microtiter plate in a volume of 5 ml each. The cells were cultured at 37° C. in the presence of 5% CO2 gas overnight. To each well was added 50 μl of 4 mM, 2 mM or 1 mM DGE aqueous solution (each of final concentrations: 40 μM, 20 μM or 10 μM), and the cells were cultured for 15 hours. […] The cells were harvested by peeling off the cells from the plate with a scraper. The harvested cells were suspended in 0.1 M Tris-HCl buffer (pH 7.5) containing 0.05 mM pepstatin (manufactured by Sigma, P5318), 0.2 mM leupeptin (manufactured by Sigma, L2884), 1 mM phenylmethylsulfonyl fluoride (manufactured by nakalai tesque, 273-27), 10 mM disodium dihydrogenethylenediaminetetraacetate and 0.1% Triton X-100, and subjected to freezing and thawing once. Thereafter, the supernatant obtained by centrifugation was used as a protein fraction. The protein content in the protein fraction was assayed by Micro BCA Protein Assay Reagent (one manufactured by Pierce sold by Takara Shuzo Co., Ltd., P7411). Each of the resulting protein fraction samples was mixed with an equal volume of 0.125 M Tris-HCl buffer (pH 6.8) containing 4% sodium lauryl sulfate (SDS), 2% 2-mercaptoethanol,
0.001% Bromophenol Blue and 20% glycerol, and the mixture was treated at 100° C. for 5 minutes. A mixture containing a protein in an amount of 10 μg or so was loaded on 12.5% SDS-polyacrylamide gel, and electrophoresed with a constant current of 20 mA. In a blotting buffer containing 48 mM Tris, 39 mM glycine, 20% methanol, 0.0375% SDS, the gel after the electrophoresis was transferred to a PDVF membrane (manufactured by Millipore Corporation, IPVHOOO 10) in accordance with the attached protocol, using transblot SD cell semi-drive blotting device (manufactured by BioRad), at a constant voltage of 15 V for 25 minutes. The transferred PVDF membrane was blocked overnight in a Block Ace (manufactured by DAINIPPON PHARMACEUTICAL CO., LTD., UK-B25) solution at 4° C. The blocked membrane was washed for 15 minutes thrice with phosphate-buffered physiological saline containing 0.1% Tween 20 under gentle shaking. Thereafter, the membrane was subjected to the reaction under gentle shaking in phosphate-buffered physiological saline containing 10% Block Ace with a 200 ng/ml anti-HOl antibody (N-19, manufactured by Santa Cruz, sc-7696) and 0.1% Tween 20 at room temperature for 1 hour, and was washed for 15 minutes thrice with phosphate-buffered physiological saline containing 0.1% Tween 20 under gentle shaking. Next, the membrane was subjected to the reaction under gentle shaking in phosphate-buffered physiological saline with 10% Block Ace with 0.1% peroxidase-conjugated rabbit anti-goat IgG (H+L) antibody (manufactured by Zymed, 61-1620) and 0.1% Tween 20 at room temperature for 1 hour, and was washed for 15 minutes five times with phosphate-buffered physiological saline containing 0.1% Tween 20 under gentle shaking. Subsequently, a PVDF membrane was stained by using Western blot Chemiluminescence Reagent Plus (one manufactured by NEN Life Science Products sold by Daiichikagaku, NEL103) in accordance with the attached protocol, and sensitized on an X-ray film (manufactured by Kodak, CAT 1651454). The sensitized film was developed with FPM800 (manufactured by Fuji Photo Film Co., Ltd.).
As a result, there could be confirmed a band ascribed to HO1 protein in the group with addition of DGE. […] In the table, + symbols were given in accordance with the intensity of the band for HO1 protein. In other words, in Table 3, those showing no bands are indicated by “−,” and the intensities of the bands are indicated by +−, +, ++ in the ascending order of the intensities of the bands.

interleukin-6 (IL-6) = assay: TPA-induced IL-6 production in peritoneal macrophage (ELISA); format: cell-based; conditions: mouse peritoneal macrophage, final concentrations 20 μM and 10 μM, 14 hours, IL-6 in culture supernatant by ELISA
Procedure: Four milliliters of a 10% fetal bovine serum-containing RPMI 1640 medium (manufactured by Bio Whittaker, 12-702F) was intraperitoneally injected to ddy mouse (Nippon SLC, female, 7-weeks old), and the mouse was well massaged, and the medium was taken out to obtain peritoneal cells. The peritoneal cells were suspended in the 10% fetal bovine serum-containing RPMI 1640 medium so as to have a concentration of 10^6 cells/ml, and dispensed into 48-well microtiter plate in a volume of 500 μl each. The peritoneal cells were cultured at 37° C. for 2 hours in the presence of 5% CO2 gas. Thereafter, the culture supernatant was removed to give adherent cells to be used as peritoneal macrophage. To each well was freshly dispensed a Dulbecco's modified Eagle's medium (manufactured by Bio Whittaker; 12-917F) without phenol red containing 10% fetal bovine serum and 2 mM L-glutamine in a volume of 500 μl. […] The content of interleukin-6 (IL-6) in the culture supernatant was assayed by enzyme immuno-sandwich assay (ELISA: Matched antibody Pair SamplePak mouse IL-6, manufactured by Endogen). Here, the group with no addition of DGE and TPA aqueous solution (control) was set as a negative control, and the group with addition of TPA aqueous solution alone (control+TPA) was set as a positive control. In addition, all of the assays were carried out twice.

interleukin-10 (IL-10) = assay: LPS-induced IL-10 production in RAW 264.7 cells (ELISA); format: cell-based; conditions: final concentration 20 μM, 5 hours, then LPS 18 hours, IL-10 in culture supernatant by ELISA
Procedure: RAW 264.7 cells (ATCC TIB 71) were suspended in a Dulbecco's modified Eagle's medium (manufactured by Bio Whittaker; 12-604F) containing 10% fetal bovine serum (manufactured by Gibco), so as to have a concentration of 3×10^5 cells/ml. The cell suspension was added to each well of a 48-well microtiter plate in a volume of 0.5 ml each. The cells were cultured at 37° C. in the presence of 5% CO2 gas overnight. To each well was added 5 μl of a 2 mM DGE aqueous solution (final concentration: 20 μM), and the cells were cultured for additional 5 hours. Thereafter, 5 μl of a 100 μg/ml lipopolysaccharide (LPS, manufactured by Sigma, L-2012) aqueous solution was added thereto, and the cells were cultured for 18 hours, and thereafter the culture supernatant was recovered. The content of the interleukin-10 (IL-10) in the culture supernatant was assayed by the enzyme immuno-sandwich assay. Here, the group with no addition of DGE and LPS aqueous solution (control) was set as a negative control, and the group with addition of LPS aqueous solution (control+LPS) alone was set as a positive control. In addition, all of the assays were carried out twice.

TNFα = assay: LPS-stimulated TNFα production in monocytes (ELISA); format: cell-based; conditions: human monocytes, final concentration 50 μM, 100 μM or 200 μM, 5 hours, then LPS 4 hours
Procedure: PBMCs were isolated in the same manner as in item (1) of Example 4. PBMCs were suspended in RPMI 1640 medium containing 5% human serum of blood type-AB, 0.1 mM nonessential amino acid, 1 mM sodium pyruvate, 2 mM L-glutamine (hereinabove manufactured by Bio Whittaker), 10 mM HEPES (manufactured by nakalai tesque), and 1% streptomycin-penicillin (manufactured by Gibco BRL) (hereinafter simply referred to as “5HRPMI medium”) so as to have a concentration of 2×10^6 cells/ml. Thereafter, the suspension was spread on a 24-well cell culture plate (manufactured by Falcon) in a volume of 1 ml/well, and the cells were incubated in a wet-type incubator at 37° C. and 5% CO2 for 1.5 hours. After 1.5 hours, the non-adherent cells were removed by suction, and each well was washed with RPMI 1640 medium, and 1 ml of the 5HRPMI medium was added to the wells, to give monocytes.
To the monocytes obtained above was added in each well 10 μl of a 1 mM, 2 mM or 4 mM aqueous DGE solution (each having a final concentration of 10 μM, 20 μM or 40 μM), or a 5 mM, 10 mM or 20 mM aqueous agarobiose solution (each having a final concentration of 50 μM, 100 μM or 200 μM), or 10 μl of water as a control (i.e. each of concentrations of DGE and agarobiose being 0 μM), and the cells were incubated in a wet-type incubator at 37° C. and 5% CO2 for 5 hours. […]

CCCCC/C=C/C=C1/C(=O)C=C[C@@H]1C/C=C\CCCC(=O)O [15-Deoxy-Δ12,14 prostaglandin J2, reference compound]
Intensity of Bands of HO1 Protein (HO1 protein; 5 μl of 3 mM dimethyl sulfoxide solution added to 5 ml well, positive control): ++

N[C@@H](CCC(=O)N[C@@H](CSC1CC2(O)OCC1OC2O)C(=O)NCC(=O)O)C(=O)O (stereo partly drawn) [DGE-GSH, 5-L-glutathion-S-yl-2-hydroxy-3,7-dioxabicyclo[2.2.2]octan-1-ol]
inhibition of TPA-induced IL-6 production (interleukin-6 (IL-6)): inhibitory action
inhibition of LPS-induced IL-10 production (interleukin-10 (IL-10)): inhibitory action
induction action for HO production (band ascribed to HO1 protein) (HO1 protein): induction action
inhibitory activity for cancer cell proliferation (HL-60 cells): active

O=C1C=CC(CO)OC1O [κ-DGE, D-Glycero-1,5-epoxy-1αβ,6-dihydroxy-cis-hex-3-en-2-one]
inhibition of TPA-induced IL-6 production (interleukin-6 (IL-6); listed as K-DGE): inhibitory action
inhibition of LPS-induced IL-10 production (interleukin-10 (IL-10)): inhibitory action
induction action for HO production (band ascribed to HO1 protein) (HO1 protein): induction action

OC[C@H]1O[C@@H](O[C@H]2[C@H]3OC[C@@H]2OC(O)[C@H]3O)[C@H](O)[C@@H](O)[C@H]1O (mixture of isomers) [agarobiose]
inhibition of LPS-stimulated TNFα production (TNFα): inhibition
